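Five concentrations, 48 hours, 96-well plates. TGI: concentration producing complete growth inhibition.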
How the values were obtained:
Test in all cases: inhibition of tumour cell growth, NCI panel, 48 h
NCI-H522 lung = tested on: NCI-H522 lung
OVCAR-3 ovarian = tested on: OVCAR-3 ovarian
NCI-H23 lung = tested on: NCI-H23 lung
EKVX NSCLC = tested on: EKVX NSCLC
KM12 colon = tested on: KM12 colon
SK-MEL-2 melanoma = tested on: SK-MEL-2 melanoma
UO-31 renal = tested on: UO-31 renal
U251 CNS = tested on: U251 CNS
RXF-631 renal = tested on: RXF-631 renal
OVCAR-5 ovarian = tested on: OVCAR-5 ovarian
HOP-92 NSCLC = tested on: HOP-92 NSCLC
RXF 393 renal = tested on: RXF 393 renal
DLD-1 colon = tested on: DLD-1 colon
SN12C renal = tested on: SN12C renal
ACHN renal = tested on: ACHN renal
MOLT-4 leukemia = tested on: MOLT-4 leukemia
HOP-18 NSCLC = tested on: HOP-18 NSCLC
SNB-78 CNS = tested on: SNB-78 CNS
CCRF-CEM leukemia = tested on: CCRF-CEM leukemia
HCC-2998 colon = tested on: HCC-2998 colon
COLO 205 colon = tested on: COLO 205 colon
CAKI-1 renal = tested on: CAKI-1 renal
SNB-19 CNS = tested on: SNB-19 CNS
K-562 leukemia = tested on: K-562 leukemia
A498 renal = tested on: A498 renal
HCT-116 colon = tested on: HCT-116 colon
SK-MEL-5 melanoma = tested on: SK-MEL-5 melanoma
SF-539 CNS = tested on: SF-539 CNS
UACC-257 melanoma = tested on: UACC-257 melanoma
HCT-15 colon = tested on: HCT-15 colon
OVCAR-4 ovarian = tested on: OVCAR-4 ovarian
NCI-H460 lung = tested on: NCI-H460 lung
A549 NSCLC = tested on: A549 NSCLC
SW-620 colon = tested on: SW-620 colon
TK-10 renal = tested on: TK-10 renal
SF-268 CNS = tested on: SF-268 CNS
RPMI-8226 leukemia = tested on: RPMI-8226 leukemia
KM20L2 colon = tested on: KM20L2 colon
SNB-75 CNS = tested on: SNB-75 CNS
DMS 114 small cell lung = tested on: DMS 114 small cell lung
HOP-62 NSCLC = tested on: HOP-62 NSCLC
HT29 colon = tested on: HT29 colon
HL-60(TB) leukemia = tested on: HL-60(TB) leukemia
NCI-H226 lung = tested on: NCI-H226 lung
MALME-3M melanoma = tested on: MALME-3M melanoma
LXFL 529 NSCLC = tested on: LXFL 529 NSCLC
LOX IMVI melanoma = tested on: LOX IMVI melanoma
786-0 renal = tested on: 786-0 renal
DMS 273 small cell lung = tested on: DMS 273 small cell lung
M14 melanoma = tested on: M14 melanoma
SK-MEL-28 melanoma = tested on: SK-MEL-28 melanoma
SK-OV-3 ovarian = tested on: SK-OV-3 ovarian
OVCAR-8 ovarian = tested on: OVCAR-8 ovarian
SF-295 CNS = tested on: SF-295 CNS
IGROV1 ovarian = tested on: IGROV1 ovarian
UACC-62 melanoma = tested on: UACC-62 melanoma
M19-MEL melanoma = tested on: M19-MEL melanoma

Cc1ccccc1NC(=O)C(=O)C(C(=O)c1ccccc1F)C1OC(=O)c2ccccc21 (stereo unspecified)
TGI (NCI-H522 lung): 19.1 µM
TGI (OVCAR-3 ovarian): 95 µM
TGI (NCI-H23 lung): 28.2 µM
TGI (EKVX NSCLC): > 100 µM
TGI (KM12 colon): 68.2 µM
TGI (SK-MEL-2 melanoma): 65.4 µM
TGI (UO-31 renal): 49.4 µM
TGI (U251 CNS): 60.6 µM
TGI (RXF-631 renal): 73.6 µM
TGI (OVCAR-5 ovarian): > 100 µM
TGI (HOP-92 NSCLC): 65.8 µM
TGI (RXF 393 renal): 24.6 µM
TGI (DLD-1 colon): 57.7 µM
TGI (SN12C renal): 71.2 µM
TGI (ACHN renal): > 100 µM
TGI (MOLT-4 leukemia): 52.4 µM
TGI (HOP-18 NSCLC): 79.4 µM
TGI (SNB-78 CNS): 80.8 µM
TGI (CCRF-CEM leukemia): 62.4 µM
TGI (HCC-2998 colon): 24.8 µM
TGI (COLO 205 colon): 45.1 µM
TGI (CAKI-1 renal): 50 µM
TGI (SNB-19 CNS): 94.8 µM
TGI (K-562 leukemia): > 100 µM
TGI (A498 renal): > 100 µM
TGI (HCT-116 colon): 29.1 µM
TGI (SK-MEL-5 melanoma): 86.5 µM
TGI (SF-539 CNS): 27.4 µM
TGI (UACC-257 melanoma): > 100 µM
TGI (HCT-15 colon): 79.5 µM
TGI (OVCAR-4 ovarian): 60.9 µM
TGI (NCI-H460 lung): > 100 µM
TGI (A549 NSCLC): > 100 µM
TGI (SW-620 colon): > 100 µM
TGI (TK-10 renal): > 100 µM
TGI (SF-268 CNS): 62.5 µM
TGI (RPMI-8226 leukemia): 48.3 µM
TGI (KM20L2 colon): > 100 µM
TGI (SNB-75 CNS): 31.8 µM
TGI (DMS 114 small cell lung): 53.3 µM
TGI (HOP-62 NSCLC): 44.4 µM
TGI (HT29 colon): > 100 µM
TGI (HL-60(TB) leukemia): 56.5 µM
TGI (NCI-H226 lung): 14.3 µM
TGI (MALME-3M melanoma): 95.1 µM
TGI (LXFL 529 NSCLC): 75.3 µM
TGI (LOX IMVI melanoma): 33.6 µM
TGI (786-0 renal): 41.6 µM
TGI (DMS 273 small cell lung): 64.5 µM
TGI (M14 melanoma): 30.3 µM
TGI (SK-MEL-28 melanoma): 35.8 µM
TGI (SK-OV-3 ovarian): > 100 µM

CC(=O)O[C@H]1CSC[C@@H](OC(C)=O)C1[N+](=O)[O-] (stereo partly specified)
TGI (NCI-H522 lung): 36.8 µM
TGI (OVCAR-3 ovarian): 55.3 µM
TGI (NCI-H23 lung): > 100 µM
TGI (EKVX NSCLC): > 100 µM
TGI (KM12 colon): > 100 µM
TGI (SK-MEL-2 melanoma): 66.9 µM
TGI (U251 CNS): > 100 µM
TGI (RXF-631 renal): > 100 µM
TGI (OVCAR-5 ovarian): > 100 µM
TGI (HOP-92 NSCLC): 39.7 µM
TGI (RXF 393 renal): 36.1 µM
TGI (SN12C renal): > 100 µM
TGI (ACHN renal): > 100 µM
TGI (MOLT-4 leukemia): 78.7 µM
TGI (HOP-18 NSCLC): > 100 µM
TGI (SNB-78 CNS): > 100 µM
TGI (CCRF-CEM leukemia): 44.4 µM
TGI (HCC-2998 colon): > 100 µM
TGI (COLO 205 colon): 49.1 µM
TGI (OVCAR-8 ovarian): > 100 µM
TGI (CAKI-1 renal): > 100 µM
TGI (SNB-19 CNS): > 100 µM
TGI (K-562 leukemia): > 100 µM
TGI (SF-295 CNS): > 100 µM
TGI (A498 renal): > 100 µM
TGI (HCT-116 colon): > 100 µM
TGI (SK-MEL-5 melanoma): > 100 µM
TGI (SF-539 CNS): > 100 µM
TGI (UACC-257 melanoma): 52 µM
TGI (HCT-15 colon): 88.9 µM
TGI (IGROV1 ovarian): > 100 µM
TGI (OVCAR-4 ovarian): > 100 µM
TGI (NCI-H460 lung): > 100 µM
TGI (UACC-62 melanoma): > 100 µM
TGI (A549 NSCLC): > 100 µM
TGI (SW-620 colon): 74.3 µM
TGI (TK-10 renal): > 100 µM
TGI (SF-268 CNS): > 100 µM
TGI (RPMI-8226 leukemia): 59.5 µM
TGI (KM20L2 colon): > 100 µM
TGI (SNB-75 CNS): > 100 µM
TGI (DMS 114 small cell lung): > 100 µM
TGI (HOP-62 NSCLC): > 100 µM
TGI (HT29 colon): > 100 µM
TGI (HL-60(TB) leukemia): 54.6 µM
TGI (NCI-H226 lung): > 100 µM
TGI (MALME-3M melanoma): 41.6 µM
TGI (LXFL 529 NSCLC): 34 µM
TGI (786-0 renal): 36.5 µM
TGI (DMS 273 small cell lung): > 100 µM
TGI (M14 melanoma): 87.7 µM
TGI (SK-MEL-28 melanoma): 69.4 µM
TGI (SK-OV-3 ovarian): > 100 µM
TGI (M19-MEL melanoma): > 100 µM
